Where only a bound is given, the exact number is not on record here.

For one test, the system named is Ctenocephalides felis. Briefly: flea membrane feed test. Particulars: Ctenocephalides felis; in vitro, adult cat fleas fed 2 hours through parafilm membrane on citrated dog blood containing compound; percentage killed recorded after overnight storage; dose responses n=5; read-out: Flea feed ED80 results. How it is done:
The flea membrane feed test is used to measure the biological activities of the compounds claimed. The assay involves in vitro testing against Ctenocephalides felis conducted according to the following general procedure.
Fleas are cultured in vitro using dog blood. 25-30 adult Ctenocephalides felis (cat flea) were collected and placed in a test chamber (50 ml polystyrene tube with fine nylon mesh sealing the end). Citrated dog blood was prepared by adding aqueous sodium citrate solution (10 ml, 20% w/v, 20 g sodium citrate in 100 ml water) to dog blood (250 ml). Test compounds were dissolved in dimethylsulfoxide to give a working stock solution of 4 mg/ml. The stock solution (12.5 μl) was added to citrated dog blood (5 ml) to give an initial test concentration of 10 μg/ml. For testing at 30 µg/ml, working stock solutions of 12 mg/ml were prepared.
Citrated dog blood containing the test compound (5 ml, 100 μg/ml) was placed into a plastic Petri dish lid, which was kept at 37° C. on a heated pad. Parafilm was stretched over the open top to form a tight membrane for the fleas to feed through. The test chamber containing the fleas was placed carefully onto the parafilm membrane and the fleas commenced feeding.
The fleas were allowed to feed for 2 hours and the test chambers were then removed and stored overnight at room temperature.
The fleas were observed and the percentage of fleas killed recorded. Compounds were initially tested at 100 μg/ml, wherefrom relevant dose responses (100, 30, 10, 3, 1, 0.3, 0.1 μg/ml) were conducted and repeated n=5. Data was plotted to generate ED80, ED90 & ED95 values.
In the case of `CS(=O)(=O)C1(c2c(C#N)nn(-c3c(Cl)cc(S(F)(F)(F)(F)F)cc3Cl)c2N)CC1` [Example 1, 5-amino-1-[2,6-dichloro-4-pentafluorothiophenyl]-4-[1-(methylsulfonyl)cyclopropyl]-1H-pyrazole-3-carbonitrile], the EC80 is at most 1 µg/mL.
As to `N#Cc1nn(-c2c(Cl)cc(C(F)(F)F)cc2Cl)c(N)c1C1(C(N)=O)CC1` [Example 2, 1-{5-amino-3-cyano-1-[2,6-dichloro-4-(trifluoromethyl)phenyl]-1H-pyrazol-4-yl}cyclopropanecarboxamide], the EC80 was at most 1 µg/mL.
Regarding `N#Cc1nn(-c2c(Cl)cc(S(F)(F)(F)(F)F)cc2Cl)c(NCCF)c1C1(C(N)=O)CC1` [Example 16, 1-{3-cyano-1-[2,6-dichloro-4-pentafluorothiophenyl]-5-[(2-fluoroethyl)amino]-1H-pyrazol-4-yl}cyclopropanecarboxamide], the EC80 is at most 1 µg/mL.
The same measure, in the same setting: then `N#Cc1nn(-c2c(Cl)cc(S(F)(F)(F)(F)F)cc2Cl)c(N)c1C1(C(N)=O)CC1(Cl)Cl` (stereo not shown) [Example 18, 1-{5-amino-3-cyano-1-[2,6-dichloro-4-pentafluorothiophenyl]-1H-pyrazol-4-yl}-2,2-dichlorocyclopropanecarboxamide], with at most 1 µg/mL.
The same measure, in the same setting: then `N#Cc1nn(-c2c(Cl)cc(S(F)(F)(F)(F)F)cc2Cl)c(NCC2CC2)c1C1(C(=O)NCc2ccncc2)CC1` [Example 19, 1-{3-cyano-5-[(cyclopropylmethyl)amino]-1-[2,6-dichloro-4-pentafluorothiophenyl]-1H-pyrazol-4-yl}-N-(pyridin-4-ylmethyl)cyclopropanecarboxamide], with at most 1 µg/mL; and `CC(C)OC(=O)Nc1c(C2(C(N)=O)CC2)c(C#N)nn1-c1c(Cl)cc(S(F)(F)(F)(F)F)cc1Cl` [Example 20, isopropyl {4-[1-(aminocarbonyl)cyclopropyl]-3-cyano-1-[2,6-dichloro-4-pentafluorothiophenyl]-1H-pyrazol-5-yl}carbamate], with at most 1 µg/mL.
Same read-out and setting: with `N#Cc1nn(-c2c(Cl)cc(S(F)(F)(F)(F)F)cc2Cl)c(NC(=O)OCC2(CF)CC2)c1C1(C(N)=O)CC1` [Example 27, [1-(fluoromethyl)cyclopropyl]methyl {4-[1-(aminocarbonyl)cyclopropyl]-3-cyano-1-[2,6-dichloro-4-pentafluorothiophenyl]-1H-pyrazol-5-yl}carbamate] the figure was at most 1 µg/mL; with `CCOC(=O)Nc1c(C2(C(N)=O)CC2)c(C#N)nn1-c1c(Cl)cc(OC(F)(F)F)cc1Cl` [Example 37, ethyl {4-[1-(aminocarbonyl)cyclopropyl]-3-cyano-1-[2,6-dichloro-4-(trifluoromethoxy)phenyl]-1H-pyrazol-5-yl}carbamate], at most 1 µg/mL.
For the molecule `N#Cc1nn(-c2c(Cl)cc(S(F)(F)(F)(F)F)cc2Cl)c(Cl)c1C1(C(N)=O)CC1` [Example 86, 1-{5-chloro-3-cyano-1-[2,6-dichloro-4-pentafluorothiophenyl]-1H-pyrazol-4-yl}cyclopropanecarboxamide], the EC80 was at most 1 µg/mL.

Staying with this test, now noted: in vitro, adult cat fleas fed 2 hours through parafilm membrane on citrated dog blood containing compound; percentage killed recorded after overnight storage; dose responses n=5.
As for `N#Cc1nn(-c2c(Cl)cc(S(F)(F)(F)(F)F)cc2Cl)c(N)c1C1(C#N)CC1` [Example 11, 5-amino-4-(1-cyanocyclopropyl)-1-[2,6-dichloro-4-pentafluorothiophenyl]-1H-pyrazole-3-carbonitrile], the “Flea feed ED80 results” value is reported as “≦1 μg/ml”.
Consider `N#Cc1nn(-c2c(Cl)cc(S(F)(F)(F)(F)F)cc2Cl)c(NCCC(N)=O)c1C1(C(N)=O)CC1` [Example 32, N˜3˜-{4-[1-(aminocarbonyl)cyclopropyl]-3-cyano-1-[2,6-dichloro-4-pentafluorothiophenyl]-1H-pyrazol-5-yl}-beta-alaninamide], for which the “Flea feed ED80 results” value is recorded as “≦1 μg/ml”.
The same measure, in the same setting: with `N#Cc1nn(-c2c(Cl)cc(S(F)(F)(F)(F)F)cc2Cl)c(NCC2CC2)c1C1(C(=O)NCc2ccccn2)CC1` [Example 45, 1-{3-cyano-5-[(cyclopropylmethyl)amino]-1-[2,6-dichloro-4-pentafluorothiophenyl]-1H-pyrazol-4-yl}-N-(pyridin-2-ylmethyl)cyclopropanecarboxamide] the entry was “≦1 μg/ml”.
Still for that read-out and setting: with `N#Cc1nn(-c2c(Cl)cc(S(F)(F)(F)(F)F)cc2Cl)c(CNC(=O)OCC2CC2)c1C1(C(N)=O)CC1` [Example 101, cyclopropylmethyl {4-[1-(aminocarbonyl)cyclopropyl]-3-cyano-1-[2,6-dichloro-4-pentafluorothiophenyl]-1H-pyrazol-5-yl}methylcarbamate] the entry was “≦1 μg/ml”.

The values are drawn from patent US7968584B2, “Substituted arylpyrazoles” (Pfizer Inc., priority 2005, dated 2011).
